These results are taken from US6403116B1, “Coenzyme Q10 formulation” (Triarco Inductries, Inc., priority 2000, dated 2002).

Data set [1] can be described thus: Coenzyme Q10 added separately to aqueous solutions of the other composition ingredients. The data set is classed as physicochemical. The following applies: 5 mg coenzyme Q10 added to 100 mL of 1%, 2.5% and 5% aqueous solutions of all ingredients except coenzyme Q10. The method, then: To test this theory a 1%, 2.5% and 5% aqueous solutions of the all the composition ingredients except coenzyme Q10 were made in 100 mL volumetric flasks. A 5 mg aliquot of coenzyme Q10 was then separately added to each of the flasks and shaken.

Data set [2] can be described thus: Water solubility of coenzyme Q10 alone. It counts as physicochemical.
For data set [3] the following is noted: as disclosed in WO 95/05164; cited from earlier work.

Like-named read-outs stand apart in the source and are kept apart here.

With `COC1=C(OC)C(=O)C(C/C=C(\C)CC/C=C(\C)CC/C=C(\C)CC/C=C(\C)CC/C=C(\C)CC/C=C(\C)CC/C=C(\C)CC/C=C(\C)CC/C=C(\C)CCC=C(C)C)=C(C)C1=O` [coenzyme Q10, 2,3-dimethoxy-5-methyl-6-decaprenyl-1,4-benzoquinone], the “behaviour in ultra sound bath” value in data set [1] is “dispersed then settled to the bottom of the flask”. Besides, the “dissolution or dispersion after shaking” value in data set [1] is given as “did not go into solution or form a dispersion”. Moreover, the results for the water solubility result in data set [2] and in data set [3] were “not water soluble at any level” and “practically insoluble in water”, respectively.
